ChEMBL document CHEMBL1128130, “Hydroxamate inhibitors of human gelatinase B (92 kDa)” (Bioorg Med Chem Lett, 1995)
Each block holds one compound with its values, some of them ahead of it.

Assays:
Neutrophil collagenase = Neutrophil collagenase (Homo sapiens, UniProt P22894)
Description: Inhibition of human Matrix metalloprotease-8

[1] = target: Matrix metalloproteinase-9 (Homo sapiens, UniProt P14780)
Description: Inhibition of human Matrix metalloprotease-9

Interstitial collagenase = target: T1, Interstitial collagenase (Homo sapiens, UniProt P03956)
T1 sequence (P03956 whole entry): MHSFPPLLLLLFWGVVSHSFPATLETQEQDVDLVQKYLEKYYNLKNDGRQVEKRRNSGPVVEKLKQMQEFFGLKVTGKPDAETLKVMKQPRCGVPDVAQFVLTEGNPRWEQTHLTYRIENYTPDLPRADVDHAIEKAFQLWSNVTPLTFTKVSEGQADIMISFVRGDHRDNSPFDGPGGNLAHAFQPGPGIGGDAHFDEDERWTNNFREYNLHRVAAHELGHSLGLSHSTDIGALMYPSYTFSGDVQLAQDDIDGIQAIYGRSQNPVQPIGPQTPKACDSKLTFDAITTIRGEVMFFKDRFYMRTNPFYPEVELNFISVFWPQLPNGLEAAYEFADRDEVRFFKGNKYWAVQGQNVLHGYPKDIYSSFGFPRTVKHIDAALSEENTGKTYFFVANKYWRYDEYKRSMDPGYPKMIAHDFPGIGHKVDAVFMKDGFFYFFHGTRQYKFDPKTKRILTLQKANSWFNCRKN
Description: Inhibition of human fibroblast collagenase, matrix metalloprotease-1

Stromelysin-1 = Stromelysin-1 (Homo sapiens, UniProt P08254)
Sequence of Stromelysin-1 (P08254 whole entry): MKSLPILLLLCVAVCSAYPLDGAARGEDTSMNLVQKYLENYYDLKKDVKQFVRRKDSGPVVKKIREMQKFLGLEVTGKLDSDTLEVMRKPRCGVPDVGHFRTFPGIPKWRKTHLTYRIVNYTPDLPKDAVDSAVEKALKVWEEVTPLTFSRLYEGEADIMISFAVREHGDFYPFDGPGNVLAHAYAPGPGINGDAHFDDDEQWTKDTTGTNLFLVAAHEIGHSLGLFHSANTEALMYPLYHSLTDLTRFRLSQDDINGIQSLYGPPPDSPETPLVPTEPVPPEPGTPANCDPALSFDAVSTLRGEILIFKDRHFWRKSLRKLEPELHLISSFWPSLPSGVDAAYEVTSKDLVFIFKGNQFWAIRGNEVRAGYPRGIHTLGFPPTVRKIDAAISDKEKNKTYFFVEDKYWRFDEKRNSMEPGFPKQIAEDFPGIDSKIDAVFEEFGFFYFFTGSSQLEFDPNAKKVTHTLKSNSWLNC
Description: Inhibition of human fibroblast stromelysin, matrix metalloprotease-3

Sequence of Matrix metalloproteinase-9 (P14780 whole entry): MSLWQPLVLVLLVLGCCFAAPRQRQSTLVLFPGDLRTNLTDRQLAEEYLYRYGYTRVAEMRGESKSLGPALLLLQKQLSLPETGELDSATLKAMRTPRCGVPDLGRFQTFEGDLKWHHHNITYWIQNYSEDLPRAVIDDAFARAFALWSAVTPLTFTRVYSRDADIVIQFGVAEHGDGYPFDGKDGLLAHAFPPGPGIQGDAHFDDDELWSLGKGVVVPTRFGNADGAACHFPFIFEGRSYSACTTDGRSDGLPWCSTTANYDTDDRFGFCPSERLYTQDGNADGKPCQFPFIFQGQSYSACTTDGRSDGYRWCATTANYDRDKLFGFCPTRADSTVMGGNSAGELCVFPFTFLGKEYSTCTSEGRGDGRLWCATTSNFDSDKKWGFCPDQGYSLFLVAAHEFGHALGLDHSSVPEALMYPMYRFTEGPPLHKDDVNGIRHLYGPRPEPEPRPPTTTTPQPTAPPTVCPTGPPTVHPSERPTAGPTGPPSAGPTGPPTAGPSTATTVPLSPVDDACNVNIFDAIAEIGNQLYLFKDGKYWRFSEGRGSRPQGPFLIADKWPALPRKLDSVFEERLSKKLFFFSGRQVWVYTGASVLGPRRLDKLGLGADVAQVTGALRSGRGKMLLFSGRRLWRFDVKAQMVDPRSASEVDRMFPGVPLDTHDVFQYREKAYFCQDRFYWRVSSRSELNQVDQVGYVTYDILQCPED
Sequence of Neutrophil collagenase (P22894 whole entry): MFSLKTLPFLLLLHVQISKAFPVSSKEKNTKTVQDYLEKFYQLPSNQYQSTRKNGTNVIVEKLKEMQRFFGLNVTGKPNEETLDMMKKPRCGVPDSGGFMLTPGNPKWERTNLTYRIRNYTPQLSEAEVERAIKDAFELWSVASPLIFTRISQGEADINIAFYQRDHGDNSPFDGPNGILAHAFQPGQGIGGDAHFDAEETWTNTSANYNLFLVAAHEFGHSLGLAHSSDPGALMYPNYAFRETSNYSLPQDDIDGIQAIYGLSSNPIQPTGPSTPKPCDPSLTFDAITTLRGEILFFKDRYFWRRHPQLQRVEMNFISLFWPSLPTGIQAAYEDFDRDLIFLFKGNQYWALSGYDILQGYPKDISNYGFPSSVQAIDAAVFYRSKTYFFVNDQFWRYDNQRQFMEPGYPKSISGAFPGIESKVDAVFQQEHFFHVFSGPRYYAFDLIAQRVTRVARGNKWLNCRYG

Compound: CNC(=O)[C@H](Cc1c[nH]c2ccccc12)NC(=O)[C@H](C)CC(=O)NO
Ki (Neutrophil collagenase): 4200 nM
Ki [1]: 500 nM
Ki (Interstitial collagenase): 8500 nM
Ki (Stromelysin-1): 40000 nM

Ki [1]: 3.3 nM
Compound: CNC(=O)[C@H](Cc1ccccc1)NC(=O)[C@H](CCCCOCc1ccccc1)CC(=O)NO

Compound: CNC(=O)[C@H](Cc1c[nH]c2ccccc12)NC(=O)[C@@H](CC(=O)NO)CC(C)C [ILOMASTAT]
Ki (Stromelysin-1): 46 nM

Ki [1]: 0.31 nM
Compound: CNC(=O)[C@H](Cc1ccccc1)NC(=O)[C@H](CCCCCOc1ccccc1)CC(=O)NO

Ki [1]: 3.8 nM
Compound: CCCCCc1ccc(OCCCC[C@H](CC(=O)NO)C(=O)N[C@H](C(=O)NC)C(C)(C)C)cc1

Ki [1]: 1.4 nM
Compound: CNC(=O)[C@H](Cc1ccccc1)NC(=O)[C@@H](CC(=O)NO)CC(C)C

Compound: CC[C@H](CC(=O)NO)C(=O)N[C@@H](Cc1c[nH]c2ccccc12)C(=O)NC
Ki (Neutrophil collagenase): 100 nM
Ki [1]: 20 nM
Ki (Interstitial collagenase): 180 nM
Ki (Stromelysin-1): 2700 nM

Compound: CNC(=O)[C@H](Cc1ccccc1)NC(=O)[C@H](CCCCCCc1ccccc1)CC(=O)NO
Ki (Neutrophil collagenase): < 2 nM
Ki [1]: 1.3 nM
Ki (Interstitial collagenase): 8400 nM
Ki (Stromelysin-1): 11 nM

Compound: CNC(=O)[C@@H](NC(=O)[C@H](CCCCOCc1ccccc1)CC(=O)NO)C(C)(C)C
Ki (Neutrophil collagenase): 4.7 nM
Ki [1]: 11 nM
Ki (Stromelysin-1): 39 nM

Compound: CNC(=O)CNC(=O)[C@H](CCCCOCc1ccccc1)CC(=O)NO
Ki (Neutrophil collagenase): 170 nM
Ki [1]: 5600 nM
Ki (Interstitial collagenase): > 100 nM
Ki (Stromelysin-1): 3500 nM

Compound: CCCCC[C@H](CC(=O)NO)C(=O)N[C@H](C(=O)N1CCCC1CO)C(C)C (some centres undefined)
Ki (Neutrophil collagenase): 190 nM
Ki [1]: 330 nM
Ki (Interstitial collagenase): 300 nM
Ki (Stromelysin-1): 1700 nM

Ki [1]: 1.2 nM
Compound: CNC(=O)[C@H](Cc1ccccc1)NC(=O)[C@H](CCCCOc1ccccc1)CC(=O)NO
